These results are taken from patent EP0510719A1, “Benzimidazole derivatives substituted with a radical group and their use for inhibiting gastric acid secretion” (priority 1986, dated 1988).

Series [1] is described as follows: Chemical stability in aqueous buffer solution at different pH, followed kinetically. In kind it is physicochemical.
For the next series, the system named is gastric acid secretion. Kind of series: Inhibiting effect in vivo on gastric acid secretion in conscious dog (histamine-stimulated, chronic gastric fistula dog). The settings on record: inhibition during the 2nd hour after dose. Here is the method: Chronic gastric fistula dog were used. These dogs have been surgically provided with a gastric cannula in the stomach and a duodenal fistula, used for direct intraduodenal administration of test compounds. Following a 4 weeks' recovery period after surgery, tests were performed once a week on each dog. Food and water were withdrawn 18 hours before each test.
Gastric acid secretion was induced by a continuous 4 h infusion of histamine at individual doses (400-600 nmol/kg^.h,iv) resulting in approximately 90% of maximal secretion of gastric acid. After 1 h of histamine stimulation, test compounds or vehicle were administered, either iv or im (vehicle = 0.5% saline) or id (vehicle = 0.5% Methocel®, 90 HG 15000, Dow Chem Corp.) via a catheter through the duodenal fistula. The gastric juice was collected by free flow from the gastric cannula in consecutive 30 min. samples during the duration of the histamine infusion. The samples were titrated to pH 7.0 with 0.1 M or 1.0 M NaOH using an automatic titrator and the acid output was calculated. The acid output during the periods after administration of test compound or vehicle was expressed as the fraction of the output during the period preceding these administrations, and the per cent inhibition of acid secretion was calculated by comparing in each dog the fractional responses induced by the test compound to the corresponding vehicle-induced fractional responses.
The test results given in Table 5 below represent inhibition during the 2nd hour after dose.

The next series is described as follows: Solubility in water. In kind it is physicochemical. On the procedure: By comparison, the sodium salt of omeprazole, 5-methoxy-2-[[(4-methoxy 3-5-dimethyl-pyridinyl)methyl] sulfinyl]-1-H-benzimidazole, has a solubility of 0.4 mg per ml at pH 9, a pH considered suitable for i.v. administration.
The mark [2] stands for this setting: pH 5, 37°C, aqueous buffer solution, low concentration, read-out: t 1/2 (hours) pH 5 (converted).
Where [3] appears, read: pH 7.3, 37°C, aqueous buffer solution, low concentration, read-out: t 1/2 (hours) pH 7.3 (converted).

Structures can show the parent of a compound that is named as a salt. Where two headings read alike, the source gives them in different places.

With `COc1ccc2[nH]c([S+]([O-])Cc3ncc(C)c(OC)c3C)nc2c1` (stereo not drawn) [Omeprazole-Na^⊕], the half-life in series [1] (pH 2, 37°C, aqueous buffer solution, low concentration, read-out: t 1/2 (hours) pH 2 (converted)) is 0.07 h; in series [1] (setting [2]), 0.04 h; in series [1] (setting [3]), 20 h.
One may read the solubility as the concentration that dissolves in the medium under given conditions. As for `COc1c(C)cnc(C[S+]([O-])c2nc3ccccc3n2COC(=O)CCC(=O)N2CCN(C)CC2)c1C` (stereo not drawn) [Example 3], the “Inhibition of acid secretion (%)” value in the series on gastric acid secretion (0,3 μmol/kg iv) is reported as 72 (1) %; in the series with gastric acid secretion (1 μmol/kg iv), 98 (1) %; with gastric acid secretion (2 μmol/kg id) it was 100 (1) %. This compound also came in with a solubility in the series “Solubility in water” (water) of more than 60 mg/mL. The half-life was 112 h in series [1] (setting [2]) and 32 h in series [1] (setting [3]).
Regarding `CCOP(=O)(O)OCn1c([S+]([O-])Cc2ncc(C)c(OC)c2C)nc2ccc(OC)cc21` (stereo not drawn) [Example 33], the “Inhibition of acid secretion (%)” value is recorded as 97 (1) % in the series on gastric acid secretion (1 μmol/kg id) and 98 (1) % with gastric acid secretion (4 μmol/kg id). In addition, the “t 1/2 (hours) pH 5” value in series [1] (pH 5, 37°C, aqueous buffer solution, low concentration) was “No decomp. after 30 h”.
Turning to `COc1ccc2nc([S+]([O-])Cc3ncc(C)c(OC)c3C)n(COP(=O)(O)O)c2c1` (stereo not drawn) [Example 29], the “Inhibition of acid secretion (%)” value with gastric acid secretion (0,3 μmol/kg iv) was 45 (1) %; in the series with gastric acid secretion (0,5 μmol/kg iv) it was 60 (1) %; in the series with gastric acid secretion (1 μmol/kg im), 90 (1) %; with gastric acid secretion (1 μmol/kg iv), 80-85 (2) %. The solubility in “Solubility in water” (water) is more than 60 mg/mL. Further, in series [1] (aqueous buffer, after 25 days at 22° at the concentration 50 mg/ml, footnote to the pH 9.5 value, read-out: decomposition), the degraded at 600 h was determined as 12%. The half-life in series [1] (setting [3]) is 74 h; in series [1] (pH 9.5, 37°C, aqueous buffer solution, low concentration, read-out: t 1/2 (hours) pH 9.5), more than 600 h.
For `COc1ccc2[nH]c([S+]([O-])Cc3ncc(C)c(OC)c3C)nc2c1` (stereo not drawn) [omeprazole, 5-methoxy-2-[[(4-methoxy 3-5-dimethyl-pyridinyl)methyl]sulfinyl]-1-H-benzimidazole, reference compound], the solubility in “Solubility in water” (at pH 9, a pH considered suitable for i.v. administration, sodium salt, read-out: solubility) came out at 0.4 mg/mL.
Regarding `COc1ccc2c(c1)nc([S+]([O-])Cc1ncc(C)c(OC)c1C)n2COP(=O)(O)O` (stereo not drawn) [Example 32, phosphoric acid, [5-methoxy-[2[[(4-methoxy-3,5-dimethyl-2-pyridinyl)methyl]sulfinyl]-1-H-benzimidazole-1-yl]]methyl ester, disodium salt], the “Inhibition of acid secretion (%)” value with gastric acid secretion (0,3 μmol/kg iv) is given as 55 (1) %; in the series with gastric acid secretion (0,6 μmol/kg iv), 53 (1) %. In series [1] (setting [3]), the half-life is 51 h.
For `COc1ccc2c(c1)nc([S+]([O-])Cc1ncc(C)c(OC)c1C)n2COC(=O)CCC(=O)N1CCN(C)CC1` (stereo not drawn) [Example 34], the half-life was 80 h in series [1] (pH 3, 37°C, aqueous buffer solution, low concentration, read-out: t 1/2 (hours) pH 3 (converted)); 100 h in series [1] (setting [2]); 40 h in series [1] (setting [3]).
